Source: patent US11540518B2, “Fungicidal oxadiazoles” (FMC Corporation, priority 2017, dated 2023)

Assays:
Type in all cases: in vivo
Phakopsora pachyrhizi = assay: Test A: Asian soybean rust control on soybean seedlings; conditions: sprayed to run-off on soybean seedlings, inoculated the following day, 100 = 100% disease control, 0 = no control
How it was run: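 Compounds in acetone/water (50/50) with 250 ppm PEG400 were sprayed to run-off on soybean seedlings, which were inoculated with P. pachyrhizi spores the next day. Plants were held in saturated atmosphere at 22° C for 24 h, then 8 days at 22° C, before visual rating (0–100% disease control vs controls).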

Zymoseptoria tritici = assay: Test B: wheat leaf blotch control on wheat seedlings; conditions: sprayed to run-off on wheat seedlings, inoculated the following day, 100 = 100% disease control, 0 = no control
[1] = test system: Puccinia recondita f. sp. tritici; assay: Test C: wheat leaf rust control on wheat seedlings; conditions: sprayed to run-off on wheat seedlings, inoculated the following day, 100 = 100% disease control, 0 = no control
How it was run: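 Wheat seedlings were sprayed to run-off with compound suspension (ppm, acetone/water with 250 ppm PEG400), then inoculated with Puccinia recondita f. sp. tritici spores the next day. Plants were held 24 h in saturated atmosphere at 20 °C, then 6 days in a 20 °C growth chamber. Disease control is rated 0-100% relative to untreated controls.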

[2] = 250 ppm (incl. values marked * = tested at 250 ppm)

Compound | Test A disease control rating (Phakopsora pachyrhizi; 250 ppm) [%] | Test B disease control rating (Zymoseptoria tritici; [2]) | Test C disease control rating ([1]; 250 ppm) [%] | Test A disease control rating (Phakopsora pachyrhizi; 10 ppm) [%] | Test B disease control rating (Zymoseptoria tritici; 10 ppm) [%] | Test C disease control rating ([1]; 10 ppm) [%] | Test A disease control rating (Phakopsora pachyrhizi; 50 ppm) [%] | Test C disease control rating ([1]; 50 ppm) [%]
CNC(=O)OC(c1ccc(F)cc1)c1ccc(-c2noc(C(F)(F)F)n2)cc1 (stereo not drawn) [Compound 113] | 100 | 82% | 100 | – | – | – | – | –
CC(C)NC(=O)OCc1ccc(-c2noc(C(F)(F)F)n2)cc1 [Compound 3] | 100 | 73% | 100 | – | – | – | – | –
CCOC(=O)NC(=O)OCc1ccc(-c2noc(C(F)(F)F)n2)cc1 [Compound 79] | – | – | – | 100 | 98 | 97 | – | –
CNC(=O)OCCc1ccc(-c2noc(C(F)(F)F)n2)cc1 [Compound 42] | – | – | – | 100 | 0 | 99 | – | –
COC(=O)NN=Cc1ccc(-c2noc(C(F)(F)F)n2)s1 [Compound 141] | – | 93* % | – | – | – | – | 100 | 100
